Laboratory results: patent US20100056524A1, “Compound” (priority 2008, published 2010)
Counter-ions that a name gives are not always drawn.

Target: T1, TBK1 (Homo sapiens, UniProt Q9UHD2)
T1 construct: All protein kinases were of human origin and encoded full length proteins, unless indicated otherwise; His6; made in house; host or cells: insect Sf21 cells
T1 sequence (Q9UHD2 1-729): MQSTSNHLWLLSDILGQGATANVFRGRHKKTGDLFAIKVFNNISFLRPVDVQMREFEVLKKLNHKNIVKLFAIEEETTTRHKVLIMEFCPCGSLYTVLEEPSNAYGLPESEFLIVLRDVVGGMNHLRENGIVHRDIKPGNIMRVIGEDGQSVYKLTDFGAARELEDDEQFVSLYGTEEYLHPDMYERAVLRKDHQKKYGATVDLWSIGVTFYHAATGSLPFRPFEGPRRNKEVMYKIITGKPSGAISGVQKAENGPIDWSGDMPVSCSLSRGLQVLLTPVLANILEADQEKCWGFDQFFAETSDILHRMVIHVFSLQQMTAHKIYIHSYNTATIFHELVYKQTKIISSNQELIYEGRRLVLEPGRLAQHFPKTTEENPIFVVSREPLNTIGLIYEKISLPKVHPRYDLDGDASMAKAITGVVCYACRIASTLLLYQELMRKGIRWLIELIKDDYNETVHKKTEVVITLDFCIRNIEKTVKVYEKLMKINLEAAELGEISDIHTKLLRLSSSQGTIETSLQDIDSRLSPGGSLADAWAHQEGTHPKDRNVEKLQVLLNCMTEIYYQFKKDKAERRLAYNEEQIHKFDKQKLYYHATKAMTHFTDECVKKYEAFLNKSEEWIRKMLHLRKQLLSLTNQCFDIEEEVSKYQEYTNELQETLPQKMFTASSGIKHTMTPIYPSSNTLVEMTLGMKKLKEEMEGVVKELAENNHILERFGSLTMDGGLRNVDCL
Assay: TBK1 protein kinase assay ([γ-33P]ATP, P81 filterplates)
Format: biochemical
Conditions: 50 μM ATP; read-out: Potency (TBK1 IC50 potency score)
From the text: All protein kinases were of human origin and encoded full length proteins, unless indicated otherwise. They were either expressed as glutathione S-transferase (GST) fusion proteins in Escherichia Coli or as hexahistidine (His6)-tagged proteins in insect Sf21 cells. GST fusion proteins were purified by affinity chromatography on glutathione-Sepharose, and His6-tagged proteins on nickel/nitriloacetate-agarose. The procedures for expressing some of the protein kinases used herein have been detailed previously.^8,9 The following sections outline the DNA vectors synthesised and the procedures used to express and purifying protein kinases that have not been reported previously.
The following kinases were expressed in Sf21 cells: Aurora B and Aurora C, extra-cellular signal-regulated kinase 8 (ERK8), microtubule affinity regulating kinase 3 (MARK3), protein kinase Bα[118-480][S473D], protein kinase Bβ (PKBβ[120-481][S474D], 3-phosphoinositide-dependent protein kinase-1 [52-556]
Assays were performed for 30 min using Multidrop Micro reagent dispensers (Thermo Electron Corporation, Waltham, Mass. 02454, USA) in a 96-well format. The concentration of magnesium acetate in the assays was 10 mM and the [γ-33P] ATP (800 cpm/pmol) was used at 5, 20 or 50 μM as indicated, in order to be at or below the Km for ATP for each enzyme. Protein kinases assayed at 5 μM ATP were: —ERK1, ERK8, PKBα, MARK3, Aurora C. Protein kinases assayed at 20 μM ATP were: —JNK1, PDK1, CHK1, CHK2, CDK2 and Aurora B. Protein kinases assayed at 50 μM ATP were: —MNK2, IKKepsilon and TBK1.
The assays were initiated with MgATP, stopped by addition of 5 μl of 0.5 M orthophosphoric acid and spotted on to P81 filterplates using a unifilter harvester (PerkinElmer, Boston, Mass. 02118, USA). The IC50 values of inhibitors were determined after carrying out assays at 10 different concentrations of each compound.
ERK1 and ERK8 were both assayed against myelin basic protein (MBP, 0.33 mg/ml). MARK3 was assayed against the peptide […] (300 μM), MNK2 against the eIF4E protein (0.5 mg/ml). PKBβ was assayed against the peptide […] (30 μM). TBK1 were assayed against ([…]) (300 μM). The substrates used for other protein kinases were described previously.^8,9
Unless stated otherwise, enzymes were diluted in 50 mM Tris/HCl pH 7.5, 0.1 mM EGTA, 1 mg/ml BSA, 0.1% (v/v) 2-mercaptoethanol and assayed in 50 mM Tris/HCl pH 7.5, 0.1 mM EGTA, 0.1% (v/v) 2-mercaptoethanol.

Compound | IC50 [nM]
O=C(CC1CC1)NCCCNc1nc(Nc2cccc(F)c2)ncc1C1CC1 [Example 24, 2-Cyclopropyl-N-{3-[5-cyclopropyl-2-(3-fluoro-phenylamino)-pyrimidin-4-ylamino]-propyl}-acetamide] | < 100
NC(=O)c1cccc(Nc2ncc(C3CC3)c(NCCCNC(=O)c3cccs3)n2)c1 [Example 36, Thiophene-2-carboxylic acid {3-[2-(3-carbamoyl-phenylamino)-5-cyclopropyl-pyrimidin-4-ylamino]-propyl}-amide trifluoroacetic acid salt] | 100 to 1000
O=C(NCCCNc1nc(Nc2ccc3[nH]c(=O)[nH]c3c2)ncc1C1CC1)C1CCC1 [Example 178, Cyclobutanecarboxylic acid {3-[5-cyclopropyl-2-(2-oxo-2,3-dihydro-1H-benzimidazol-5-ylamino)-pyrimidin-4-ylamino]-propyl}-amide] | < 100
O=C(NCCCNc1nc(Nc2ccc3nccnc3c2)ncc1C1CC1)C1CCC1 [Example 190, Cyclobutanecarboxylic acid {3-[5-cyclopropyl-2-(quinoxalin-6-ylamino)-pyrimidin-4-ylamino]-propyl}-amide] | < 100
Cn1ncc2cc(Nc3ncc(C4CC4)c(NCCCNC(=O)C4CCC4)n3)cnc21 [Example 200, Cyclobutanecarboxylic acid {3-[5-cyclopropyl-2-(1-methyl-1H-pyrazolo[3,4-b]pyridin-5-ylamino)-pyrimidin-4-ylamino]-propyl}-amide] | < 100
O=C(NCCCNc1nc(Nc2cc(F)cc(F)c2)ncc1C1CC1)C1CCC1 [Example 72, Cyclobutanecarboxylic acid {3-[5-cyclopropyl-2-(3,5-difluoro-phenylamino)-pyrimidin-4-ylamino]-propyl}-amide. Hydrochloride salt] | < 100
N#Cc1cccc(Nc2ncc(C3CC3)c(NCCCNC(=O)c3cccs3)n2)c1 [Example 61, Thiophene-2-carboxylic acid {3-[2-(3-cyano-phenylamino)-5-cyclopropyl-pyrimidin-4-ylamino]-propyl}-amide] | 100 to 1000
Cn1c(=O)n(C)c2cc(Nc3ncc(C4CC4)c(NCCCNC(=O)C4CCC4)n3)ccc21 [Example 179, Cyclobutanecarboxylic acid {3-[5-cyclopropyl-2-(1,3-dimethyl-2-oxo-2,3-dihydro-1H-benzimidazol-5-ylamino)-pyrimidin-4-ylamino]-propyl}-amide] | < 100
O=C(NCCCNc1nc(Nc2cccc(NC(=O)N3CCCC3)c2)ncc1C1CC1)c1cccs1 [Example 49, Pyrrolidine-1-carboxylic acid [3-(5-cyclopropyl-4-{3-[(thiophene-2-carbonyl)-amino]-propylamino}-pyrimidin-2-ylamino)-phenyl]-amide] | < 100
O=C(NCCCNc1nc(Nc2ccc(S(=O)(=O)Nc3ncccn3)cc2)ncc1C1CC1)C1CCC1 [Example 163, Cyclobutanecarboxylic acid (3-{5-cyclopropyl-2-[4-(pyrimidin-2-ylsulfamoyl)-phenylamino]-pyrimidin-4-ylamino}-propyl)-amide] | < 100
CN1Cc2cc(Nc3ncc(C4CC4)c(NCCCNC(=O)C4CCC4)n3)ccc2C1=O [Example 167, Cyclobutanecarboxylic acid {3-[5-cyclopropyl-2-(2-methyl-1-oxo-2,3-dihydro-1H-isoindol-5-ylamino)-pyrimidin-4-ylamino]-propyl}-amide] | < 100
Cn1cc(Nc2ncc(C3CC3)c(NCCCNC(=O)C3CCC3)n2)cn1 [Example 153, Cyclobutanecarboxylic acid {3-[5-cyclopropyl-2-(1-methyl-1H-pyrazol-4-ylamino)-pyrimidin-4-ylamino]-propyl}-amide] | < 100

Continued, values first:

IC50 [nM] | Compound
< 100 | CN(C)CCCN(C)C(=O)c1cccc(Nc2ncc(C3CC3)c(NCCCNC(=O)C3CCC3)n2)c1 [Example 79, 3-{4-[3-(Cyclobutanecarbonyl-amino)-propylamino]-5-cyclopropyl-pyrimidin-2-ylamino}-N-(3-dimethylamino-propyl)-N-methyl-benzamide]
< 100 | CN(Cc1cccc(Nc2ncc(C3CC3)c(NCCCNC(=O)C3CCC3)n2)c1)C1CCCC1 [Example 132, Cyclobutanecarboxylic acid [3-(2-{3-[(cyclopentyl-methyl-amino)-methyl]-phenylamino}-5-cyclopropyl-pyrimidin-4-ylamino)-propyl]-amide]
< 100 | CN(C)[C@@H]1CCN(C(=O)c2cccc(Nc3ncc(C4CC4)c(NCCCNC(=O)C4CCC4)n3)c2)C1 [Example 126, Cyclobutanecarboxylic acid (3-{5-cyclopropyl-2-[3-((R)-3-dimethylamino-pyrrolidine-1-carbonyl)-phenylamino]-pyrimidin-4-ylamino}-propyl)-amide]
< 100 | O=C(NCCCNc1nc(Nc2cccc(C(=O)N3CCOCC3)c2)ncc1C1CC1)C1CCC1 [Example 75, Cyclobutanecarboxylic acid (3-{5-cyclopropyl-2-[3-(morpholine-4-carbonyl)-phenylamino]-pyrimidin-4-ylamino}-propyl)-amide]
< 100 | O=C(NCCCNc1nc(Nc2cccc(N3CCCC3=O)c2)ncc1C1CC1)C1CCC1 [Example 48, Cyclobutanecarboxylic acid (3-{5-cyclopropyl-2-[3-(2-oxo-pyrrolidin-1-yl)-phenylamino]-pyrimidin-4-ylamino}-propyl)-amide]
< 100 | O=C(NCCCNc1nc(Nc2cccc(F)c2)ncc1C1CC1)C1CCCCC1 [Example 3, Cyclohexanecarboxylic acid {3-[5-cyclopropyl-2-(3-fluoro-phenylamino)-pyrimidin-4-ylamino]-propyl}-amide trifluoroacetic acid salt]
< 100 | O=C(O)c1cccc(Nc2ncc(C3CC3)c(NCCCNC(=O)C3CCC3)n2)c1 [Example 71, 3-{4-[3-(Cyclobutanecarbonyl-amino)-propylamino]-5-cyclopropyl-pyrimidin-2-ylamino}-benzoic acid hydrochloride salt]
< 100 | CN(C)CCN(C)C(=O)c1ccc(Nc2ncc(C3CC3)c(NCCCNC(=O)C3CCC3)n2)cc1 [Example 176, 4-{4-[3-(Cyclobutanecarbonyl-amino)-propylamino]-5-cyclopropyl-pyrimidin-2-ylamino}-N-(2-dimethylamino-ethyl)-N-methyl-benzamide]
< 100 | O=C(NCCCNc1nc(Nc2cccc(CN3CCCC3)c2)ncc1C1CC1)C1CCC1 [Example 131, Cyclobutanecarboxylic acid {3-[5-cyclopropyl-2-(3-pyrrolidin-1-ylmethyl-phenylamino)-pyrimidin-4-ylamino]-propyl}-amide]
< 100 | CN(C)CCN(C)C(=O)c1cccc(Nc2ncc(C3CC3)c(NCCCNC(=O)C3CCC3)n2)c1 [Example 76, 3-{4-[3-(Cyclobutanecarbonyl-amino)-propylamino]-5-cyclopropyl-pyrimidin-2-ylamino}-N-(2-dimethylamino-ethyl)-N-methyl-benzamide]
< 100 | O=C(NCCCNc1nc(Nc2cccc(CO)c2)ncc1C1CC1)C1CCC1 [Example 70, Cyclobutanecarboxylic acid {3-[5-cyclopropyl-2-(3-hydroxymethyl-phenylamino)-pyrimidin-4-ylamino]-propyl}-amide. xHCl salt]
